Measurements from ChEMBL document CHEMBL4725259 (Bioorg Med Chem, 2020).
The source made the active and inactive calls. No cut-off for these calls is given here.

How the values were obtained:
[1] = biological target: Vasopressin V1a receptor (Homo sapiens) (UniProt P37288); experiment: Antagonist activity at AVPR1A in human U2OS cells at 20 uM by PathHunter beta-arrestin assay; assay type: cell-based; settings: filed as antagonist
[2] = biological target: T1, Vasopressin V1b receptor (Homo sapiens) (UniProt P47901); experiment: Antagonist activity at human AVPR1B expressed in CHO-K1 cells at 20 uM by PathHunter beta-arrestin assay; assay type: cell-based; settings: filed as antagonist
T1 sequence (whole entry): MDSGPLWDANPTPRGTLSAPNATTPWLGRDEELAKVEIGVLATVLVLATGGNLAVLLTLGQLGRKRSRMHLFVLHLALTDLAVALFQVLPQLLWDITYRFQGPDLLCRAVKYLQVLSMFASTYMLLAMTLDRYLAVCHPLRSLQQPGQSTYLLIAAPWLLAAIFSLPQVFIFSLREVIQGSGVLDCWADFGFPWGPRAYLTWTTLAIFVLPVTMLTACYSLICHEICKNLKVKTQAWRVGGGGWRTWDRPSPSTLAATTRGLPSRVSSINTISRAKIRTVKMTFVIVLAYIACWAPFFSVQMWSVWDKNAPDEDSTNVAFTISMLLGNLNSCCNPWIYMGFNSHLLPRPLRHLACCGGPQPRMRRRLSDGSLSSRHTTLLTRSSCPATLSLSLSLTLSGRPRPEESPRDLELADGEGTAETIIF

Vasopressin V2 receptor [3] = biological target: T2, Vasopressin V2 receptor (Homo sapiens, UniProt P30518); experiment: Antagonist activity at human AVPR2 by PathHunter beta-arrestin assay
[4] = biological target: T3, C-C chemokine receptor type 3 (Homo sapiens) (UniProt P51677); experiment: Antagonist activity at human CCR3 expressed in CHO-K1 cells at 20 uM by PathHunter beta-arrestin assay relative to control; assay type: cell-based; settings: filed as antagonist
T3 sequence (whole entry): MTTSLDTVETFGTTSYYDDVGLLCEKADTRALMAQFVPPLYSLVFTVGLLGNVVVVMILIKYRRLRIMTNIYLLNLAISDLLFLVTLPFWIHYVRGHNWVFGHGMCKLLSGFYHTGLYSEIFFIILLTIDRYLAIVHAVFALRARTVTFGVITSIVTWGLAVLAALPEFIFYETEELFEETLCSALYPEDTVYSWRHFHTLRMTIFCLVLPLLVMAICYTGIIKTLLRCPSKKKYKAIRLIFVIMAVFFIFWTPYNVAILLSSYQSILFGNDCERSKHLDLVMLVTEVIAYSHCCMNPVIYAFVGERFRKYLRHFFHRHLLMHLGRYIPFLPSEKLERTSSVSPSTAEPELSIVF

[5] = biological target: T4, Oxytocin receptor (Homo sapiens) (UniProt P30559); experiment: Agonist activity at human OXTR expressed in CHO-K1 cells at 20 uM by PathHunter beta-arrestin assay relative to control; assay type: cell-based
T4 sequence (whole entry): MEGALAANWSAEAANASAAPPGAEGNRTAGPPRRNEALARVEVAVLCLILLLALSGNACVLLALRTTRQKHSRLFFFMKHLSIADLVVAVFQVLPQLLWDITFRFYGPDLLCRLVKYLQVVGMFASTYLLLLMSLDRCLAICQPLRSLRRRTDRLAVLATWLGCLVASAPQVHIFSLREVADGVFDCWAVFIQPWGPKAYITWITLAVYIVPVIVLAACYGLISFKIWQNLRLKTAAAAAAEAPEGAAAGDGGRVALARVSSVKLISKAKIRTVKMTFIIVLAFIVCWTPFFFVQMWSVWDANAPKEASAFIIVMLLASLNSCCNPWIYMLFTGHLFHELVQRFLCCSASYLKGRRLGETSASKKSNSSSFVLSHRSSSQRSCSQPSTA

[6] = biological target: T5, C-C chemokine receptor type 8 (Homo sapiens, UniProt P51685); experiment: Agonist activity at human CCR8 expressed in CHO-K1 cells at 20 uM by PathHunter beta-arrestin assay relative to control; assay type: cell-based
[7] = biological target: D(2) dopamine receptor (Homo sapiens) (UniProt P14416); experiment: Antagonist activity at human DRD2L expressed in CHO-K1 cells at 20 uM by PathHunter beta-arrestin assay relative to control; assay type: cell-based; settings: filed as antagonist
[8] = biological target: D(2) dopamine receptor (Homo sapiens) (UniProt P14416); experiment: Agonist activity at human DRD2L expressed in CHO-K1 cells at 20 uM by PathHunter beta-arrestin assay relative to control; assay type: cell-based
[9] = biological target: T6, Prolactin-releasing peptide receptor (Homo sapiens) (UniProt P49683); experiment: Antagonist activity at human PRLHR expressed in CHO-K1 cells at 20 uM by PathHunter beta-arrestin assay relative to control; assay type: cell-based; settings: filed as antagonist
T6 sequence (whole entry): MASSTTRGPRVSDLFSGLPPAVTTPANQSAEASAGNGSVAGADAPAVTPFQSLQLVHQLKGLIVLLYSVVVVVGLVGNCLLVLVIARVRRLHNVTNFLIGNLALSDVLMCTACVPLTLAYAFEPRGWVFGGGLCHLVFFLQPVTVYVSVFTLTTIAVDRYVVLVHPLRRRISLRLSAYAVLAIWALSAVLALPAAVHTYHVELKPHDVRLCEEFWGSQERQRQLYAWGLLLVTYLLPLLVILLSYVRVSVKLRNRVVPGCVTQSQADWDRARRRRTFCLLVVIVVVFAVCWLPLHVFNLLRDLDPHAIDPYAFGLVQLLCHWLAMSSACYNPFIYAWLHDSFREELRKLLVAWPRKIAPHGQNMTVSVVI

Vasopressin V2 receptor [10] = biological target: T2, Vasopressin V2 receptor; experiment: Antagonist activity at human AVPR2 at 20 uM by PathHunter beta-arrestin assay relative to control; settings: filed as antagonist
Oxytocin receptor = biological target: T7, Oxytocin receptor (Homo sapiens, UniProt P30559); experiment: Antagonist activity at human OXTR expressed in CHO-K1 cells by PathHunter beta-arrestin assay; assay type: cell-based
T7 sequence (P30559 whole entry): T4 sequence (whole entry)

[11] = biological target: C-X-C chemokine receptor type 4 (Homo sapiens, UniProt P61073); experiment: Antagonist activity at human CXCR4 expressed in mouse C2C12 cells by PathHunter beta-arrestin assay; assay type: cell-based
[12] = biological target: T8, CX3C chemokine receptor 1 (Homo sapiens, UniProt P49238); experiment: Antagonist activity at human CX3CR1 expressed in CHO-K1 cells by PathHunter beta-arrestin assay; assay type: cell-based
T8 sequence (P49238 whole entry): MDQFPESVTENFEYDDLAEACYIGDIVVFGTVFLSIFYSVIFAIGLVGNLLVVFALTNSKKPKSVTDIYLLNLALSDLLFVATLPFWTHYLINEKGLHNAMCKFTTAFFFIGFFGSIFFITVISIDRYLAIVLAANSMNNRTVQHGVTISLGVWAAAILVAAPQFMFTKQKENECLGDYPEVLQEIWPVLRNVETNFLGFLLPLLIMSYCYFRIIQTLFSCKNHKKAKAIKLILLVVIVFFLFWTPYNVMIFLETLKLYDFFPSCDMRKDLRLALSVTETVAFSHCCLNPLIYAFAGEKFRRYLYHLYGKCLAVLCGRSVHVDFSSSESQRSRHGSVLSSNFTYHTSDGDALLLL

[13] = biological target: T5, C-C chemokine receptor type 8; experiment: Antagonist activity at human CCR8 expressed in CHO-K1 cells by PathHunter beta-arrestin assay; assay type: cell-based
[14] = biological target: T9, C-C chemokine receptor type 3 (Homo sapiens, UniProt P51677); experiment: Antagonist activity at human CCR3 expressed in CHO-K1 cells by PathHunter beta-arrestin assay; assay type: cell-based
T9 sequence (P51677 whole entry): T3 sequence (whole entry)

T5 sequence (P51685 whole entry): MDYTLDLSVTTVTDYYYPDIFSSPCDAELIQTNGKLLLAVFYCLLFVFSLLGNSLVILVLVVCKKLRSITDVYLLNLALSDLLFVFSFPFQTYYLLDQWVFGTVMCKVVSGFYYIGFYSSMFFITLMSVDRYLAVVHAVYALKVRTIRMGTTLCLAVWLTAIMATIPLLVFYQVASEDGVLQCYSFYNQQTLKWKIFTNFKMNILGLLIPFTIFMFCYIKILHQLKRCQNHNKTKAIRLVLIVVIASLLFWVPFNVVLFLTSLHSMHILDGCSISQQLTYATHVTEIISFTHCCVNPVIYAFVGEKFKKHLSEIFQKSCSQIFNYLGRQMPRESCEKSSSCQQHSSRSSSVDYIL
D(2) dopamine receptor (Homo sapiens), sequence (P14416 whole entry): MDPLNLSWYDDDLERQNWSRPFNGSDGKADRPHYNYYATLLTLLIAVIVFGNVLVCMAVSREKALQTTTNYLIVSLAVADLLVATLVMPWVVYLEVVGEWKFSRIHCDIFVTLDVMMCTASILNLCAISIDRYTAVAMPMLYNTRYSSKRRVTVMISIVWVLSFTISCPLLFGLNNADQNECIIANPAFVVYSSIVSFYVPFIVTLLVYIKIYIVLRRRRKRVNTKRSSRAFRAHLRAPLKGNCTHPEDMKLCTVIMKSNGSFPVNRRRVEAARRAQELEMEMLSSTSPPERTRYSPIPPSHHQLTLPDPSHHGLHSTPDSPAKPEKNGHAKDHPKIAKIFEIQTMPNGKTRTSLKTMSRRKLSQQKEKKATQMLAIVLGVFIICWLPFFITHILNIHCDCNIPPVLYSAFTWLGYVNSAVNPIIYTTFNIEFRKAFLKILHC
T2 sequence (P30518 whole entry): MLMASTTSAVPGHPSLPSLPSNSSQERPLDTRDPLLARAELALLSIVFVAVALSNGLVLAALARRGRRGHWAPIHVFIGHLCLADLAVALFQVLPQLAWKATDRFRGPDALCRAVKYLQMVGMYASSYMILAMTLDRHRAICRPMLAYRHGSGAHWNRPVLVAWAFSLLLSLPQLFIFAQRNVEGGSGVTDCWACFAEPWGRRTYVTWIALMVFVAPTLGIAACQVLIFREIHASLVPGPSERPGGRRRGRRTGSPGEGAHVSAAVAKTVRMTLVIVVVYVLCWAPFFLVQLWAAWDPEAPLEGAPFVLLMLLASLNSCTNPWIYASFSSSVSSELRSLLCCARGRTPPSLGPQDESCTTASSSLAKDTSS
Vasopressin V1a receptor (Homo sapiens), sequence (P37288 whole entry, looked up): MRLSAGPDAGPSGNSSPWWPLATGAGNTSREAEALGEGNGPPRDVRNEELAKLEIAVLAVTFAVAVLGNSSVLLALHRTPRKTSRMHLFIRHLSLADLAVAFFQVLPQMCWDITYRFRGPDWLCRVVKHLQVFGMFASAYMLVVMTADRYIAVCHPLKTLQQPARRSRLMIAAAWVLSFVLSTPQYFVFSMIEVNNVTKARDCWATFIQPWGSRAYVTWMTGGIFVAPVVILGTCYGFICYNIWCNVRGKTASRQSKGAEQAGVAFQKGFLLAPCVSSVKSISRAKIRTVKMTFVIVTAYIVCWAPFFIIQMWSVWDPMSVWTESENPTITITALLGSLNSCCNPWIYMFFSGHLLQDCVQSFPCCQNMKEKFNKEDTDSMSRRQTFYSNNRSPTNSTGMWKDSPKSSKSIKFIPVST
C-X-C chemokine receptor type 4, sequence (P61073 whole entry): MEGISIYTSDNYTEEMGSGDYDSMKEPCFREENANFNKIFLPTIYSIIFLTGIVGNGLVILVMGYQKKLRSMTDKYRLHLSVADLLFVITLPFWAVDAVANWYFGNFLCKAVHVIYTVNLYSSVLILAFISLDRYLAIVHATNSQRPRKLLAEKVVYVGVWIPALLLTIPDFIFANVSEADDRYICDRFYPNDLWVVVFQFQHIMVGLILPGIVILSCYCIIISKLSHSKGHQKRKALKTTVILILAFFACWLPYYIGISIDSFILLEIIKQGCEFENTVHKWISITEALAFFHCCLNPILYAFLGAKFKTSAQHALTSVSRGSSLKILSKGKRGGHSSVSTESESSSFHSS

| inhibition [1] | inhibition [2] | IC50 (Vasopressin V2 receptor [3]) | IC50 (Vasopressin V2 receptor [3]; read-out: IC50) | inhibition [4] | Activity [5] | Activity [6] | inhibition [7] | Activity [8] | inhibition [9] | inhibition (Vasopressin V2 receptor [10]) | IC50 (Oxytocin receptor) | IC50 [11] | IC50 [12] | IC50 [13] | IC50 [14] | Structure (SMILES) |
| --- | --- | --- | --- | --- | --- | --- | --- | --- | --- | --- | --- | --- | --- | --- | --- | --- |
| Active | Active | Dose-dependent effect | 0.459 µM | 89% | inactive | inactive | 9% | inactive | 63% | 83% | 1.16 µM |  |  |  |  | COC(=O)[C@@H]1[C@H]2C[C@@H]3N(CC[C@@]34C(=O)N(Cc3cccc(OC)c3)c3ccccc34)C[C@@H]2CC[C@@H]1OCc1cccc(OC)c1 |
|  |  |  |  | 112% | inactive | inactive |  | inactive | 19% | 7% |  | 7.94 µM | 8.47 µM | 7.29 µM | 8.3 µM | COC(=O)[C@@H]1[C@H]2C[C@@H](c3[nH]c4ccccc4c3CCn3cc(-c4cccc(Cl)c4)nn3)N(C#N)C[C@@H]2CC[C@@H]1O |
